# Data as given in PMC11542593, “Vascular endothelial growth factor receptor 2 as a potential host target for the inhibition of enterovirus replication” (Journal of Virology, 2024).
# How the values were obtained:
# [1] = test system: EV-A71; assay: EV-A71 replication in multiple cell types (293T, Vero-E6, Huh7, HepG2, HT-29, Caco2); format: cell-based, Human enterovirus A71; conditions: Vero-E6, Huh7, HepG2 (MOI 1), HT-29, Caco2 (MOI 2), 24 hpi
# [2] = test system: EV-D70; assay: Antiviral activity against EV-D70 in RD cells (RT-qPCR, TCID50); format: cell-based, enterovirus D70; conditions: 10 µM, 0.1 MOI, 24 h
# Experimental: (§1) Detection of cellular mRNA expression and viral load was performed as described previously ([24]). In brief, the infected or mock-infected cells were lysed and applied to total RNA extraction by using the MiniBEST Universal RNA Extraction Kit (TaKaRa, Code No.9767). Viral RNA in the supernatant was extracted with the MiniBEST Viral RNA Extraction Kit (TaKaRa, Code No.9766). Reverse transcription was performed using the PrimeScript RT reagent Kit (TaKaRa, Code No.PR037A) with an oligo (dT) primer. The resultant cDNAs were used for qPCR assay with the Light Cycler 480 SYBR Green I Master Mix (Roche) to measure the mRNA expression level of cellular genes or viral load in supernatants. The relative viral gene copy was determined by RT-qPCR, using GAPDH as an internal reference.
# (§2) The viral titer in the indicated samples was determined by TCID50 assay as described previously ([25]). Briefly, serially diluted samples from 10^−1 to 10^−8 in DMEM were inoculated to RD cells, BGMK cells, or MRC-5 in 96‐well plates. The cells were then incubated for 2 to 3 days at 37°C. TCID50 was calculated by counting the wells with cytopathic effect in infected cells using the Reed–Muench method.
# (§3) The viral gene copy in the cell lysate is normalized with the transcript of GAPDH and presented. Viral titers were also detected by TCID50 assay. […] All experiments were independently repeated thrice.
# [3] = test system: EV-A71; assay: Cytopathic effect (CPE) inhibition assay in RD cells; format: cell-based, Human enterovirus A71; conditions: Enterovirus A, EVA71, RD, read-out: EC50, compound concentration required to achieve 50% protection from virus-induced cytopathogenicity
# [4] = test system: EV-A71; assay: Time-of-drug addition assay in RD cells; format: cell-based, Human enterovirus A71; conditions: MOI 1, read at 12 hpi
# Experimental: RD cells were seeded into 24-well plates or eight-well chamber slides (Millicell) 1 day before infection with EV-A71 at an MOI of 1. After adsorption for 2 h, the cells were washed with PBS once to remove the unbound virus and maintained in DMEM supplemented with 2% FBS. […] At 12 hpi, the virus from the culture supernatant were collected, and the relative viral gene copy was detected by RT-qPCR. Meanwhile, the virus titer was assessed using TCID50 assay as described before. To analyze VP1 expression, the cells in the eight-well chamber slides were fixed and then monitored using immunofluorescence staining.
# (A) Graphical scheme illustrating the experimental design. (B) RT-qPCR measured the amount of viral RNA released into culture supernatant. (C) Viral titer was determined in TCID50 assays. […] Nuclei are counterstained with DAPI (blue). Scale bar, 50 µm.
# [5] = test system: EV-A71; assay: Flow cytometry of VP1-positive EV-A71-infected RD cells; format: cell-based, Human enterovirus A71; conditions: 10 μM, MOI 2, 6 and 9 hpi
# Experimental: Flow cytometry analysis was performed according to the standard protocol as described previously ([28]). In brief, the infected or mock-infected RD cells were dissociated with 10 mM EDTA and then fixed with 4% paraformaldehyde for 30 min. After permeabilization, the cells were incubated with rabbit anti‐VP1 antibody (GeneTex, GTX132339), followed by labeling with FITC-conjugated goat anti-rabbit IgG (Beyotime, P0176). Flow cytometry analysis was performed using a BD Fortessa flow cytometer (BD Biosciences), and the data were analyzed using FlowJo v.10 (Tree Star, USA).
# Fig. S4. […] Then the infected- and mock-infected RD cells were fixed, labeled, and applied to flow cytometry to evaluate the percentage of VP1-positive cells at 0, 3, 6 and 9 hpi. […] Mean and SD of three independent experiments are presented (B and C). *p < 0.05; **p < 0.01.
# [6] = test system: CVA10; assay: Antiviral activity against CVA10 in RD cells (RT-qPCR, TCID50); format: cell-based, coxsackievirus A10; conditions: 10 µM, 0.1 MOI, 24 h
# Experimental: as §1, §2, §3
# [7] = test system: HRV-A; assay: Antiviral activity against HRV-A in MRC-5 cells (RT-qPCR, TCID50); format: cell-based, human rhinovirus A; conditions: 10 µM, 0.1 MOI, 24 h
# Experimental: as §1, §2, §3
# [8] = CellTiter-Glo luminescent cell viability assay (cytotoxicity); conditions: human, RD cells
# Experimental: Fig. S1. (A) RD cells were treated with the indicated concentrations of inhibitors and incubated at 37°C for 24 h. CellTiter‐Glo® luminescent cell viability assay was used to measure the CC50 of selected inhibitors. […] (B) RD cells treated with the selected inhibitors (10 μM) were inoculated with EV-A71 at an MOI of 0.01. At 48 hpi, cells were harvested to detect the expression level of VP1 by western blotting.
# [9] = test system: VEGFR2; design: method as in PMID 17620431; conditions: cited from earlier work
# [10] = test system: IL-6, IL-8, TNF-α mRNA expression; assay: EV-A71-induced pro-inflammatory cytokine mRNA expression in Huh7 and THP-1 cells; format: cell-based; conditions: 10 µM, Huh7 (MOI 2) and THP-1 (MOI 5) cells, 12 hpi
# [11] = test system: EV-A71; assay: Virus attachment/entry assay in RD cells; format: cell-based, Human enterovirus A71; conditions: 10 µM, MOI 5
# Experimental: After 2 hpi, the infectious inoculum was removed, and cell lysates were collected. The intracellular viral RNA load was then determined using RT-qPCR analysis. […] The cell lysates were then collected to detect the intracellular viral gene copy by RT-qPCR analysis.
# Fig. S5. […] (A) EV-A71 inactivation assay. […] (B) EV-A71 attachment assay. […] After 2 hpi, the infectious inoculum was removed and cells were washed again. The intracellular viral RNA load was then determined using RT-qPCR analysis. (C) EV-A71 entry assay.
# [12] = test system: EV-A71; assay: Multi-cycle virus growth assay in RD cells (TCID50); format: cell-based, Human enterovirus A71; conditions: 10 µM, MOI 0.01, entire time-course
# Source text: RD cells were infected with EV‐A71 at an MOI of 0.01. Viral titers in cell culture supernatants were quantified by TCID50 assay at indicated time points. […] RD cells were infected with EV‐A71 at an MOI of 1. […] At 12 hpi, the cells were lysed for detecting mRNA expression levels of proinflammatory cytokines and chemokines. IL-6, interleukin 6; IL-8, interleukin 8; TNF-α, tumor necrosis factor-α.
smiles,measurement,setting,value
Cc1ccc(Nc2nccc(N(C)c3ccc4c(C)n(C)nc4c3)n2)cc1S(N)(=O)=O [Pazopanib],EV-A71 replication in cell culture supernatants of multiple cell types,[1],significantly reduced
same,decrease in viral load and viral titer,[2],over 2 logs
same,EC50,[3],890 ± 20 nM
same,"inhibitory effect, late treatment",[4]; 10 µM added at 6 to 10 hpi,no significant inhibitory effect
same,"viral load and viral titer of progeny virions in culture medium, early treatment","[4]; 10 µM added at −2 h, 0 h, 2 h, 4 h",significantly reduced
same,percentage of EV-A71-infected RD cells,[5],markedly decreased
same,viral load and viral titer of CVA10 in cell lysates and supernatants,[6],significantly reduced
same,HRV-A replication (viral loads in cell lysate and supernatant),[7],slight but significant inhibition
same,CC50 at 24 h,[8],226000 ± 27600 nM
same,EV-A71-induced pro-inflammatory cytokine activation,[10],significantly suppressed
same,effect on viral attachment/entry (EV-A71 mRNA levels in cell lysates),[11],did not affect the viral attachment/entry stage
same,decrease of viral titers in the cell supernatant vs DMSO,[12],over 4 logs
